According to article PMC6713165, “Identification of 1H-pyrazolo[3,4-b]pyridine derivatives as potent ALK-L1196M inhibitors” (Journal of Enzyme Inhibition and Medicinal Chemistry, 2019):
Where two headings read alike, the source gives them in different places.

Columns and labels:
ALK-T1151-L1152insT = ALK-T1151-L1152insT (Homo sapiens, UniProt Q9UM73, INS1151T); experiment: Radiometric biochemical kinase assay, ALK-T1151-L1152insT
Protocol: (§1) Biochemical kinase assay was performed by methods previously reported. Kinase reactions of all test compounds except 10g were carried out at 10 µM ATP. Kinase reaction of 10g was performed at three different concentrations of ATP (10/50/100 µM).

Lyn = Lyn (Homo sapiens, UniProt P07948); experiment: Biochemical kinase assay, Lyn
Sequence of Lyn (P07948 whole entry): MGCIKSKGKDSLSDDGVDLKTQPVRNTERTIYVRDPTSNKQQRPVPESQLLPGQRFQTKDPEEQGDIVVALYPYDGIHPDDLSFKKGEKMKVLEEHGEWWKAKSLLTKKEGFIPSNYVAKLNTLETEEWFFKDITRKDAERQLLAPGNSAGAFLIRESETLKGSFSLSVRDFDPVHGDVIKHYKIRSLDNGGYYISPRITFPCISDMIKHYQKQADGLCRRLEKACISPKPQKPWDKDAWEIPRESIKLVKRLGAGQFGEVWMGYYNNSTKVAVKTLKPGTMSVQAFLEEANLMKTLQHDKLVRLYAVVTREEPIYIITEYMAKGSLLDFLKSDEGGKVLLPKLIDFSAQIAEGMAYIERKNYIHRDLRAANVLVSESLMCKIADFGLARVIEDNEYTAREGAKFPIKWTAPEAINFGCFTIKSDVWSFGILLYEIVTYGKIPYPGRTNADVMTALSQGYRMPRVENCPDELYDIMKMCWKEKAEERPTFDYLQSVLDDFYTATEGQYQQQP
Protocol: as §1

H2228 (EML4-ALK) cells = experiment: Anti-proliferation assay (CTG), H2228; type: cell-based; details: Homo sapiens, NCI-H2228, 72 h, mean ± SD of three independent experiments
Protocol: (§2) ALK wt-TEL, ALK L1196M-TEL transformed Ba/F3 and H2228 cell lines were cultured in RPMI1640 (Welgene, # LM011-01). […] Parental Ba/F3 cells were cultured in RPMI1640 media supplemented with 10% foetal bovine serum and 1% penicillin/streptomycin solution in the presence of IL-3. The cells were maintained in a humidified atmosphere containing 5% CO2 at 37 °C.
(§3) Cells (ALK wt-TEL, ALK L1196M-TEL and Parental Ba/F3: 1 × 10^4, H2228: 5 × 10^3) were plated in 96 well tissue culture plates. Each compound was added to each well at 10 dose points of three-fold serial dilution in DMSO. After treatment with each compound for 72 h, CTG assay solution (Promega, # G7572) was added to each well.

Parental Ba/F3 cells = experiment: Anti-proliferation assay (CTG), parental Ba/F3; type: cell-based; details: Mus musculus, BaF3, 72 h, with IL-3, mean ± SD of three independent experiments, read-out: GI50 Ba/F3 cell lines Parental
Protocol: as §2, §3

ALK wt-TEL Ba/F3 cells [1] = experiment: Anti-proliferation assay (CTG), ALK wt-TEL Ba/F3; type: cell-based; details: Mus musculus, BaF3
Protocol: as §2, §3

[2] = test system: ALK L1196M-TEL Ba/F3 cells; experiment: Anti-proliferation assay (CTG), ALK L1196M-TEL Ba/F3; type: cell-based
Protocol: as §2, §3

[3] = Permeability assessment using Caco-2 cells; type: in vitro ADME, human; details: human
Protocol: (§4) Stock solutions (10 mM) of reference compounds and 10g were diluted to a concentration of 10 µM with the transport buffer (HBSS + 1%BSA) and the test compounds were applied to the apical or basolateral side of the cell monolayer. […] In addition, the efflux ratio of each compound was also determined. Reference compounds and 10g were quantified by LC-MS/MS analysis based on the peak area ratio of analyte/the internal standard.

Caco-2 cells = experiment: Permeability assessment using Caco-2 cells; type: in vitro ADME, human
Protocol: as §4

ALK wt-TEL Ba/F3 cells [4] = experiment: Apoptosis analysis (annexin V-FITC/PI, FACS), ALK wt-TEL Ba/F3; type: cell-based; details: ALK wt-TEL Ba/F3, 24 h, in words
Protocol: (§5) After 24–48 h following compound treatment, cells were harvested and stained with annexin V (1:500 diluted in annexin V buffer) for 30 min and PI (1:200) solution for 30 min. 1 × 10^6 cells were analysed using flow cytometric analysis. For the cell cycle arrest analysis, cells were harvested by trypsinisation and fixed with 70% ethanol overnight at −20 °C. The next day, cells were harvested and washed with cold DPBS at 500 × g.

[5] = test system: ALK L1196M-TEL Ba/F3 cells; experiment: Apoptosis analysis (annexin V-FITC/PI, FACS), ALK L1196M-TEL Ba/F3; type: cell-based
Protocol: as §5

H2228 cells [6] = experiment: Apoptosis analysis (annexin V-FITC/PI, FACS), H2228; type: cell-based; details: H2228, 48 h, in words
Protocol: as §5

H2228 cells [7] = experiment: Cell cycle arrest analysis (PI, FACS), H2228; type: cell-based; details: H2228, 1 µM, 24 h, in words
Protocol: as §5, with “g. The cells were suspended in RNase/PI solution (Cell Signalling Technologies, # 4087).” for “g.”

[8] = test system: ALK autophosphorylation and STAT3, ERK, PLC-gamma phosphorylation in ALK wt-TEL Ba/F3, ALK L1196M-TEL Ba/F3 and H2228 cell lines; experiment: Western blot of ALK autophosphorylation and downstream signalling; type: cell-based; details: in words
Protocol: (§6) Cells were harvested and lysed using IP buffer containing 50 mM HEPES (pH 7.4), 1% Triton X-100, 2 mM EDTA, 150 mM NaCl, 2.5 mM NaF, 5 mM Na3VO4, protease inhibitor cocktail tablet (Roche, # 11–878-580–001). The protein concentration was determined by Bradford assay. Proteins were separated using SDS-PAGE and transferred onto NC membrane. The membranes were blocked using 5% skim milk in TBS-T buffer. The rabbit polyclonal antibody against phospho-ALK (Tyr1604, # 3341), phospho-ERK1/2 (Thr202/Tyr204, # 8544), phospho- PLC-gamma (Tyr783, # 14008), phospho-STAT3 (Tyr705, # 4074) and cleaved caspase3 (# 9661) were purchased from Cell Signalling Technologies, and PARP1/2 (H-250, # sc-7150) and anti-β-actin (# sc-47778) antibody was obtained from Santa Cruz Biotechnology. All primary antibodies were diluted in TBS-T at 1:1000. Each primary antibody was incubated overnight at 4 °C, followed by the secondary antibody treatment for 1 h at room temperature. Secondary antibodies were purchased from genDEPOT. Proteins were detected using ECL substrate, and then exposed to X-ray film.

[9] = test system: cleaved PARP and cleaved caspase-3 in ALK wt-TEL and ALK L1196M-TEL Ba/F3 cells; experiment: Western blot of apoptosis markers; type: cell-based; details: 36 h, in words
Protocol: as §6

Sequence of ALK-T1151-L1152insT (Q9UM73 with tags, fused parts or gaps INS1151T limits assumed): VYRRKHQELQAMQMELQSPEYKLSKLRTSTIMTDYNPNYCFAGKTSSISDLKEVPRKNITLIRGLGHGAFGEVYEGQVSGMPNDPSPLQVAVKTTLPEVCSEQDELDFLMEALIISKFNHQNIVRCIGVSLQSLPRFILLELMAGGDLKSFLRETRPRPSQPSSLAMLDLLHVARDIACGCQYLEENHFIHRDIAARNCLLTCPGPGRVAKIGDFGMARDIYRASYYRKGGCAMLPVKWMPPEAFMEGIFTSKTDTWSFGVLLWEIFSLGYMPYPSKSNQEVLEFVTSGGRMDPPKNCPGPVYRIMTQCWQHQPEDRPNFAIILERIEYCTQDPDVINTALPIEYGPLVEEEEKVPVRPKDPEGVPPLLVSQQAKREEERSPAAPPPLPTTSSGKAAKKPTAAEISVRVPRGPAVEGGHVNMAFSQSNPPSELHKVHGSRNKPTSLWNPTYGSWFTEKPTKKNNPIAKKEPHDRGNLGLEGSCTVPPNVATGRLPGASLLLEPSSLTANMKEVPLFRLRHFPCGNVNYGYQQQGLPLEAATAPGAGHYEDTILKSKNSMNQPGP

In the case of `CN1CCN(c2ccc(C(=O)Nc3n[nH]c4ncc(S(=O)(=O)c5cccc(F)c5)cc34)cc2)CC1` [10g, N-(5-((3-Fluorophenyl)sulfonyl)-1H-pyrazolo[3,4-b]pyridin-3-yl)-4–(4-methylpiperazin-1-yl)benzamide], the IC50 (ALK-T1151-L1152insT) is reported as 6.19 nM, the IC50 (Lyn) is reported as 33 nM and the GI50 (H2228 (EML4-ALK) cells) is reported as 219 ± 50 nM. For the same compound, the GI50 (Parental Ba/F3 cells) was 3500 ± 1130 nM, the GI50 (ALK wt-TEL Ba/F3 cells [1]; 72 h, CTG, mean ± SD of three independent experiments, read-out: GI50 Ba/F3 cell lines ALK wt-TEL) was 205 ± 60 nM and the GI50 (ALK wt-TEL Ba/F3 cells [1]; stated in text for both ALK-driven Ba/F3 lines (ALK wt-TEL and ALK L1196M-TEL), read-out: GI50 ALK-driven Ba/F3 cells) was < 205 nM. The GI50 ([2]; Mus musculus, BaF3, 72 h, CTG, mean ± SD of three independent experiments, read-out: GI50 Ba/F3 cell lines ALKL1196M-TEL) was 129 ± 20 nM, the “differential cytotoxicity against ALK-L1196M Ba/F3 cells vs. parental Ba/F3 cells compared with crizotinib” value ([2]; in words) was “much more favourable differential cytotoxicity” and the Papp A→B at 120 min, 10 µM ([3]; Caco-2, Caco-2, 10 µM, 120 min, 37 °C, HBSS + 1%BSA, read-out: Mean Papp A to B) was 2.56 ×10⁻⁶ cm/s. For the same compound, the recovery at 120 min, 10 µM ([3]; Caco-2, Caco-2, 10 µM, 120 min, read-out: Mean recovery % A to B) was 74.2%, the recovery at 120 min, 10 µM ([3]; Caco-2, Caco-2, 10 µM, 120 min, read-out: Mean recovery % B to A) was 92.3% and the Papp A→B at 120 min, 10 µM ([3]; Caco-2, Caco-2 permeability class from Papp (A to B), read-out: Rank Papp) was 2.5 to 10 ×10⁻⁶ cm/s. The efflux ratio at 120 min, 10 µM ([3]; Caco-2, 10 µM, 120 min) was 1.85, the Papp B→A at 120 min, 10 µM ([3]; Caco-2, 10 µM, 120 min, 37 °C, HBSS + 1%BSA) was 4.74 ×10⁻⁶ cm/s and the “Rank Papp” value (Caco-2 cells; Caco-2 permeability class from Papp (A to B)) was “moderate”. For the same compound, the “Rank P-gp” value (Caco-2 cells; P-gp substrate status from efflux ratio) was “not a substrate”, the “number of apoptotic cells (FACS)” value (ALK wt-TEL Ba/F3 cells [4]) was “increases the number of apoptotic cells in a dose-dependent manner” and the “number of apoptotic cells (FACS)” value ([5]; ALK L1196M-TEL Ba/F3, 24 h, in words) was “increases the number of apoptotic cells in a dose-dependent manner”. The “apoptosis induction compared with crizotinib” value ([5]; ALK L1196M-TEL Ba/F3, in words) was “more effectively than does crizotinib”, the “apoptosis induction (FACS)” value (H2228 cells [6]) was “induces apoptosis in H2228 cells in a dose dependent fashion” and the cell cycle arrest (H2228 cells [7]) was “significant enhancement of G1-S arrest”. The “ALK autophosphorylation (western blot)” value ([8]; 1 and 10 µM, 2 h, ALK wt-TEL Ba/F3, ALK L1196M-TEL Ba/F3 and H2228 cell lines) was “effectively attenuates”, the “phosphorylation levels of STAT3, ERK and PLC-gamma (western blot)” value ([8]; 2 h, dose-dependent) was “moderately suppressed” and the “inhibition of ALK autophosphorylation compared with crizotinib” value ([8]; ALK L1196M-TEL Ba/F3 cells) was “more effective than crizotinib”. For the same compound, the “levels of cleaved PARP and cleaved caspase-3 (western blot)” value [9] was “increases in the levels of cleaved PARP and cleaved caspase-3”.
